Assay: solvent given as SMILES

Structure (SMILES): CC(C)(C)Nc1cc2sc3cc(NC(C)(C)C)c(F)cc3c(=O)c2cc1F
- emission maximum (in CCO): 432 nm

Structure (SMILES): Clc1nc(Cl)nc(Nc2ccc3c4cccc5cccc(c6cccc2c63)c54)n1
- emission maximum (in C1COCCO1): 472 nm
- emission maximum (in CC#N): 475 nm
- emission maximum (in CCCCOCCCC): 475 nm
- emission maximum (in CCOC(C)=O): 469 nm

Structure (SMILES): Cc1cc2cc(N3c4ccccc4Oc4ccccc43)ccc2c(=O)o1
- emission maximum (in Cc1ccccc1): 540 nm

Structure (SMILES): CCOC(=O)COc1ccc(/C=C/C2=C3c4ccccc4C(c4ccc[nH]4)=[N+]3[B-](F)(F)n3ccc(C)c32)cc1
- emission maximum (in C1CCOC1): 625 nm
- emission maximum (in CC#N): 617 nm
- emission maximum (in CCCCCC): 630 nm
- emission maximum (in CO): 624 nm
- emission maximum (in Cc1ccccc1): 637 nm
- emission maximum (in ClCCl): 631 nm

Structure (SMILES): C[N+]1=C(/C=C/C2=C3Oc4c(cc5c6c4CCCN6CCC5)C(c4ccccc4C(=O)O)=C3CCC2)C(C)(C)c2c1ccc1ccccc21
- emission maximum (in CC#N): 780 nm
- emission maximum (in CCO): 763 nm
- emission maximum (in CO): 768 nm
- emission maximum (in ClC(Cl)Cl): 775 nm

Structure (SMILES): CN(C)c1ccc(C2=Nc3ccc4c(C(F)(F)F)cc(C(F)(F)F)nc4[n+]3[B-](F)(F)O2)cc1
- emission maximum (in ClCCl): 642 nm

Structure (SMILES): Cc1cc(N2c3ccccc3[Si](c3ccccc3)(c3ccccc3)c3ccccc32)c(C)cc1-c1nc(-c2ccccc2)nc(-c2ccccc2)n1
- emission maximum (in Cc1ccccc1): 465 nm
- emission maximum (in O=P(c1ccccc1)(c1ccccc1)c1ccccc1Oc1ccccc1P(=O)(c1ccccc1)c1ccccc1): 465 nm

Structure (SMILES): C[Si](C)(C)[Si](C)(C)c1cccc2cc3ccccc3cc12
- emission maximum (in C1CCCCC1): 410 nm
- emission maximum (in CC#N): 411 nm

Structure (SMILES): CCCCn1c2ccc(-c3ccc(OC)cc3)cc2c2ccc3c4cc(-c5ccc(OC)cc5)ccc4n(CCCC)c3c21
- emission maximum (in ClC(Cl)Cl): 415 nm

Structure (SMILES): CCn1c2ccccc2c2cccc(N(c3ccccc3)c3ccccc3)c21
- emission maximum (in ClCCl): 423 nm

Structure (SMILES): c1cc2ccc3cccc4c(-c5cc(-c6nccs6)nc(-c6nccs6)c5)cc(c1)c2c34
- emission maximum (in CC#N): 458 nm
- emission maximum (in CCCCCC): 392 nm
- emission maximum (in CO): 483 nm
- emission maximum (in ClC(Cl)Cl): 439 nm

Structure (SMILES): [O-]c1ccccc1-c1[nH+]c2c3ccccc3c3ccccc3c2o1
- emission maximum (in Cc1ccccc1): 495 nm

Structure (SMILES): CC(C)(C)OC(=O)c1c(C=Cc2ccccc2)oc(NC2CCCCC2)c1C(=O)OC(C)(C)C
- emission maximum (in CC#N): 462 nm

Structure (SMILES): N#Cc1cc(-n2c3ccccc3c3ccccc32)c(C#N)cc1-n1c2ccccc2c2ccccc21
- emission maximum (in c1cc(-c2cccc(-n3c4ccccc4c4ccccc43)c2)cc(-n2c3ccccc3c3ccccc32)c1): 370 nm
- emission maximum (in c1ccc2c(c1)c1ccccc1n2P1(n2c3ccccc3c3ccccc32)=NP(n2c3ccccc3c3ccccc32)(n2c3ccccc3c3ccccc32)=NP(n2c3ccccc3c3ccccc32)(n2c3ccccc3c3ccccc32)=N1): 370 nm

Structure (SMILES): CN(C)c1ccc2c(-c3ccc(Br)cc3)c3ccc(=[N+](C)C)cc-3oc2c1
- emission maximum (in CCO): 579 nm

Structure (SMILES): CC(C)(C)c1ccc2c(c1)c1cc(C(C)(C)C)ccc1n2-c1ccc(-c2cccs2)s1
- emission maximum (in ClCCl): 417 nm

Structure (SMILES): CCCCN(CCCC)c1ccc(C#Cc2cc(C#Cc3ccc(N(CCCC)CCCC)cc3)c(C#Cc3cc(C(F)(F)F)cc(C(F)(F)F)c3)cc2C#Cc2cc(C(F)(F)F)cc(C(F)(F)F)c2)cc1
- emission maximum (in ClCCl): 552 nm
- emission maximum (in c1ccccc1): 514 nm

Structure (SMILES): CC(C)c1cccc(C(C)C)c1N1C(=O)c2cc(Oc3ccc(C(C)(C)C)cc3)c3c4c(Oc5ccc(C(C)(C)C)cc5)cc5c6c(cc(Oc7ccc(C(C)(C)C)cc7)c(c7c(Oc8ccc(C(C)(C)C)cc8)cc(c2c37)C1=O)c64)C(=O)N(c1c(C(C)C)cccc1C(C)C)C5=O
- emission maximum (in Cc1ccccc1): 611 nm

Structure (SMILES): CCCCCCCCC1(CCCCCCCC)c2cc(-c3ccc(C=C4C(=O)c5ccccc5C4=O)cc3)ccc2-c2ccc(-c3ccc(C=C4C(=O)c5ccccc5C4=O)cc3)cc21
- emission maximum (in C1CCOC1): 531 nm
- emission maximum (in CC(C)=O): 568 nm
- emission maximum (in CCCCCC): 462 nm
- emission maximum (in CS(C)=O): 596 nm
- emission maximum (in Cc1ccccc1): 486 nm
- emission maximum (in ClC(Cl)Cl): 530 nm

Structure (SMILES): CCCCCCCCCCCCOc1ccc(C2=c3sc4ccccc4c3=[N+]3C2=Nc2c(-c4ccc(OCCCCCCCCCCCC)cc4)c4sc5ccccc5c4n2[B-]3(F)F)cc1
- emission maximum (in C1CCOC1): 813 nm
- emission maximum (in Cc1ccccc1): 804 nm
- emission maximum (in ClC(Cl)Cl): 808 nm

Structure (SMILES): C[SiH](C)c1ccc([SiH](C)C)c2ccccc12
- emission maximum (in C1CCCCC1): 333 nm

Structure (SMILES): Cc1cc(O)c(C(=O)/C=C/c2ccc(Cl)cc2Cl)c(=O)o1
- emission maximum (in CC#N): 473 nm
- emission maximum (in ClCCl): 472 nm

Structure (SMILES): Cc1cccc2nc(-c3cc(=O)c(OCc4ccccc4)co3)c(NC3CCCCC3)n12
- emission maximum (in ClCCl): 476 nm
